Counter-ions that a name gives are not always drawn.
System: LPS induced IL-6 secretion from whole blood
Experiment: Measurement of LPS Induced IL-6 Secretion from Whole Blood
Type: cell-based
Conditions: IL-6 by immunoassay, LPS 200 ng/ml, 24 hours
Experimental: Activation of monocytic cells by agonists of toll-like receptors such as bacterial lipopolysaccharide (LPS) results in production of key inflammatory mediators including IL-6. Such pathways are widely considered to be central to the pathophysiology of a range of auto-immune and inflammatory disorders.
Compounds to be tested are diluted to give a range of appropriate concentrations of which 1 μl of the diluted stocks is added to a 96 well plate. Following addition of whole blood (130 μl) the plates are incubated at 37 degrees (5% CO2) for 30 min before the addition of 10 μl of 2.8 ug/ml LPS, diluted in complete RPMI 1640 (final concentration=200 ng/ml), to give a total volume of 140 μl per well. After further incubation for 24 hours at 37 degrees, 140 μl of PBS are added to each well. The plates are sealed, shaken for 10 minutes and then centrifuged (2500 rpm×10 min). 100 μl of the supernatant are removed and IL-6 levels assayed by immunoassay (typically by MesoScale Discovery technology) either immediately or following storage at −20 degrees. Concentration response curves for each compound was generated from the data and an IC50 value was calculated.

| Compound | IC50 [µM] |
| --- | --- |
| CC(=O)N1c2ccc(-c3ccc(C(=O)N4CCOCC4)cn3)cc2[C@H](Nc2cnccn2)C[C@@H]1C [Example 58, 1-((2S,4R)-2-methyl-6-(5-(morpholine-4-carbonyl)pyridin-2-yl)-4-(pyrazin-2-ylamino)-3,4-dihydroquinolin-1(2H)-yl)ethanone] | 0.0501 to 3.16 |
| CC(=O)N1c2ccc(-c3ccc(C(=O)N4CCOCC4)cn3)cc2[C@H](Nc2ccc(C)cn2)C[C@@H]1C [Example 59, 1-((2S,4R)-2-methyl-4-((5-methylpyridin-2-yl)amino)-6-(5-(morpholine-4-carbonyl)pyridin-2-yl)-3,4-dihydroquinolin-1(2H)-yl)ethanone] | 0.0501 to 3.16 |
| CC(=O)N1c2ccc(-c3ccc(C(=O)N4CCOCC4)cn3)cc2[C@H](Nc2cnc(C)cn2)C[C@@H]1C [Example 60, 1-((2S,4R)-2-methyl-4-((5-methylpyrazin-2-yl)amino)-6-(5-(morpholine-4-carbonyl)pyridin-2-yl)-3,4-dihydroquinolin-1(2H)-yl)ethanone] | 0.0501 to 3.16 |
| CC(=O)N1c2ccc(-c3ccc(C(=O)N4CCOCC4)cn3)cc2[C@H](Nc2ccccn2)C[C@@H]1C [Example 61, 1-((2S,4R)-2-methyl-6-(5-(morpholine-4-carbonyl)pyridin-2-yl)-4-(pyridin-2-ylamino)-3,4-dihydroquinolin-1(2H)-yl)ethanone] | 0.0501 to 3.16 |
| CC(=O)N1c2ccc(-c3ccc(C(=O)N4CCOCC4)nc3)cc2[C@H](Nc2cccc(Cl)c2)C[C@@H]1C [Example 62] | 0.0501 to 3.16 |
| CC(=O)N1c2ccc(-c3ccc(C(=O)N4CCOCC4)cn3)cc2[C@H](Nc2cccc(Cl)c2)C[C@@H]1C [Example 63] | 0.0501 to 3.16 |
| CC(=O)N1c2ccc(-c3ccc(C(=O)N4CCOCC4)cn3)cc2[C@H](Nc2ccc(Cl)cc2)C[C@@H]1C [Example 64, 1-((2S,4R)-4-((4-chlorophenyl)amino)-2-methyl-6-(5-(morpholine-4-carbonyl)pyridin-2-yl)-3,4-dihydroquinolin-1(2H)-yl)ethanone] | 0.0501 to 3.16 |
| CC(=O)N1c2ccc(-c3ccc(C(=O)N4CCOCC4)cc3)cc2[C@H](Nc2ccc(C#N)cn2)C[C@@H]1C [Example 65, 6-(((2S,4R)-1-acetyl-2-methyl-6-(4-(morpholine-4-carbonyl)phenyl)-1,2,3,4-tetrahydroquinolin-4-yl)amino)nicotinonitrile] | 0.0501 to 3.16 |
| CC(=O)N1c2ccc(-c3ccc(C(=O)N4CCCC4)cc3)cc2[C@H](Nc2ccc(C)cn2)C[C@@H]1C [Example 68, 1-((2S,4R)-2-methyl-4-((5-methylpyridin-2-yl)amino)-6-(4-(pyrrolidine-1-carbonyl)phenyl)-3,4-dihydroquinolin-1(2H)-yl)ethanone formate] | 0.0501 to 3.16 |

Second part, the compound after the results:

| IC50 [µM] | Compound |
| --- | --- |
| 0.0501 to 3.16 | CC(=O)N1c2ccc(-c3ccc(C(=O)NCCO)cc3)cc2[C@H](Nc2ccc(Cl)cc2)C[C@@H]1C [Example 40, 4-((2S,4R)-1-acetyl-4-((4-chlorophenyl)amino)-2-methyl-1,2,3,4-tetrahydroquinolin-6-yl)-N-(2-hydroxyethyl)benzamide] |
| 0.0501 to 3.16 | CC(=O)N1c2ccc(-c3ccc(C(=O)NC[C@H](C)O)cc3)cc2[C@H](Nc2ccc(Cl)cc2)C[C@@H]1C [Example 42, 4-((2S,4R)-1-acetyl-4-((4-chlorophenyl)amino)-2-methyl-1,2,3,4-tetrahydroquinolin-6-yl)-N—((S)-2-hydroxypropyl)benzamide] |
| 0.0501 to 3.16 | CC(=O)N1c2ccc(-c3ccc(C(=O)NCCN)cc3)cc2[C@H](Nc2ccc(Cl)cc2)C[C@@H]1C [Example 44, 4-((2S,4R)-1-acetyl-4-((4-chlorophenyl)amino)-2-methyl-1,2,3,4-tetrahydroquinolin-6-yl)-N-(2-aminoethyl)benzamide] |
| 0.0501 to 3.16 | CC(=O)N1c2ccc(-c3ccc(C(=O)NCCN(C)C)cc3)cc2[C@H](Nc2ccccc2)C[C@@H]1C [Example 45, 4-((2S,4R)-1-acetyl-2-methyl-4-(phenylamino)-1,2,3,4-tetrahydroquinolin-6-yl)-N-(2-(dimethylamino)ethyl)benzamide] |
| 0.0501 to 3.16 | CC(=O)N1c2ccc(-c3ccc(C(=O)NCCO)cc3)cc2[C@H](Nc2ccccc2)C[C@@H]1C [Example 46, 4-((2S,4R)-1-acetyl-2-methyl-4-(phenylamino)-1,2,3,4-tetrahydroquinolin-6-yl)-N-(2-hydroxyethyl)benzamide] |
| 0.0501 to 3.16 | CC(=O)N1c2ccc(-c3ccc(C(=O)N4CCNCC4)nc3)cc2[C@H](Nc2ccc(C#N)cn2)C[C@@H]1C [Example 48, 6-(((2S,4R)-1-acetyl-2-methyl-6-(6-(piperazine-1-carbonyl)pyridin-3-yl)-1,2,3,4-tetrahydroquinolin-4-yl)amino)nicotinonitrile] |
| 0.0501 to 3.16 | CC(=O)N1c2ccc(-c3ccc(C(=O)NCCO)nc3)cc2[C@H](Nc2cnc(C#N)cn2)C[C@@H]1C [Example 49, 5-((2S,4R)-1-acetyl-4-((5-cyanopyrazin-2-yl)amino)-2-methyl-1,2,3,4-tetrahydroquinolin-6-yl)-N-(2-hydroxyethyl)picolinamide] |
| 0.0501 to 3.16 | CC(=O)N1c2ccc(-c3ccc(C(=O)N4CCOCC4)nc3)cc2[C@H](Nc2ccc(C)cn2)C[C@@H]1C [Example 51, 1-((2S,4R)-2-methyl-4-((5-methylpyridin-2-yl)amino)-6-(6-(morpholine-4-carbonyl)pyridin-3-yl)-3,4-dihydroquinolin-1(2H)-yl)ethanone] |
| 0.0501 to 3.16 | CC(=O)N1c2ccc(-c3ccc(C(=O)N4CCOCC4)nc3)cc2[C@H](Nc2ccc(Cl)cn2)C[C@@H]1C [Example 52, 1-((2S,4R)-4-((5-chloropyridin-2-yl)amino)-2-methyl-6-(6-(morpholine-4-carbonyl)pyridin-3-yl)-3,4-dihydroquinolin-1(2H)-yl)ethanone] |
| 0.0501 to 3.16 | CC(=O)N1c2ccc(-c3ccc(C(=O)N4CCOCC4)nc3)cc2[C@H](Nc2cnc(C)cn2)C[C@@H]1C [Example 54, 1-((2S,4R)-2-methyl-4-((5-methylpyrazin-2-yl)amino)-6-(6-(morpholine-4-carbonyl)pyridin-3-yl)-3,4-dihydroquinolin-1(2H)-yl)ethanone] |
| 0.0501 to 3.16 | CC(=O)N1c2ccc(-c3ccc(C(=O)N4CCOCC4)cc3)cc2[C@H](Nc2ccc(C)cn2)C[C@@H]1C [Example 56, 1-((2S,4R)-2-methyl-4-((5-methylpyridin-2-yl)amino)-6-(4-(morpholine-4-carbonyl)phenyl)-3,4-dihydroquinolin-1(2H)-yl)ethanone formate] |
| 0.0501 to 3.16 | CC(=O)N1c2ccc(-c3ccc(C(=O)N4CCOCC4)cn3)cc2[C@H](Nc2ccc(Cl)cn2)C[C@@H]1C [Example 57, 1-((2S,4R)-4-((5-chloropyridin-2-yl)amino)-2-methyl-6-(5-(morpholine-4-carbonyl)pyridin-2-yl)-3,4-dihydroquinolin-1(2H)-yl)ethanone] |

— patent US8993554B2, “Tetrahydroquinoline derivatives useful as bromodomain inhibitors” (GlaxoSmithKline LLC, priority 2011, dated 2015)
